Experimental data: ChEMBL document CHEMBL5291721, “A preclinical secondary pharmacology resource illuminates target-adverse drug reaction associations of marketed drugs” (Nat Commun, 2023)

Tests used:
Acetylcholinesterase = Acetylcholinesterase (Homo sapiens, UniProt P22303); format: functional
[1] = molecular target: T1, Alpha-2A adrenergic receptor (Homo sapiens, UniProt P08913)
T1 sequence (P08913 whole entry): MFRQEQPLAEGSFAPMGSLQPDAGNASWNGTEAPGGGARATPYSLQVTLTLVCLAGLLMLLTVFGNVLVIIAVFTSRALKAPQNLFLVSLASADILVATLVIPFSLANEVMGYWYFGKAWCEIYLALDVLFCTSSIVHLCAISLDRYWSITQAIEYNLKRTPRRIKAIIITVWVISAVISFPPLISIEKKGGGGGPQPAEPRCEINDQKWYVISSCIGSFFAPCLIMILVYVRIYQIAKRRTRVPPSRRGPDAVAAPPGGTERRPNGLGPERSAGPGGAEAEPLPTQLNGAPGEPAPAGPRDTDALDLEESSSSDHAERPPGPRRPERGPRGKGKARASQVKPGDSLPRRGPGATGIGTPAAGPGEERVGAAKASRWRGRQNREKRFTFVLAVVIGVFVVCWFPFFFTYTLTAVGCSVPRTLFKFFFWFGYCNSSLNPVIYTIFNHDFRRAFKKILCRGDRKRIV

[2] = molecular target: T2, Muscarinic acetylcholine receptor M2 (Homo sapiens, UniProt P08172)
T2 sequence (P08172 whole entry): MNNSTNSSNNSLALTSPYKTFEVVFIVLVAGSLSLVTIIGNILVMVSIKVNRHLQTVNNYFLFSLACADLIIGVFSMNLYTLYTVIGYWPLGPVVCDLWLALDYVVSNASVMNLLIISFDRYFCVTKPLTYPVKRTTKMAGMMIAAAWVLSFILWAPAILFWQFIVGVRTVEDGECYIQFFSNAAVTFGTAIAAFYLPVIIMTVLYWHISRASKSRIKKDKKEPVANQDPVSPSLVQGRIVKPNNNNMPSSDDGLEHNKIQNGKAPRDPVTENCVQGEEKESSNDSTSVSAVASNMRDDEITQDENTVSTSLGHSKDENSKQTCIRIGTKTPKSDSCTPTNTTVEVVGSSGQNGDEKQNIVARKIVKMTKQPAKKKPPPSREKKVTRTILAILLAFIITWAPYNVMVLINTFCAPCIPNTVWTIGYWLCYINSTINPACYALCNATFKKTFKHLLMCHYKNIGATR

D(3) dopamine receptor = D(3) dopamine receptor (Homo sapiens, UniProt P35462)
Prothrombin = Prothrombin (Homo sapiens, UniProt P00734); format: functional
[3] = molecular target: T3, 5-hydroxytryptamine receptor 1A (Homo sapiens, UniProt P08908)
T3 sequence (P08908 whole entry): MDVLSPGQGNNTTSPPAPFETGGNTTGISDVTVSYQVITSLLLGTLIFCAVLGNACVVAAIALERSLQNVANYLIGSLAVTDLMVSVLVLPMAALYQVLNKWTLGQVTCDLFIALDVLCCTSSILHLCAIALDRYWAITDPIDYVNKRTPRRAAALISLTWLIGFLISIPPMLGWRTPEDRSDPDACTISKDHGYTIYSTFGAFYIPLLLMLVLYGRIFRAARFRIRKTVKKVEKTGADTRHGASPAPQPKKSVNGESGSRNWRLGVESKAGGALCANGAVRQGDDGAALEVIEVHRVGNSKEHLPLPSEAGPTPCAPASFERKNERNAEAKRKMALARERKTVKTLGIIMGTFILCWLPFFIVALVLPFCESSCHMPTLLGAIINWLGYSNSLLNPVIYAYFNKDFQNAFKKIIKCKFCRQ

[4] = molecular target: Voltage-gated inwardly rectifying potassium channel KCNH2 (Homo sapiens, UniProt Q12809); format: functional; details: read-out: AC50
[5] = molecular target: Vascular endothelial growth factor receptor 2 (Homo sapiens, UniProt P35968); format: functional
[6] = molecular target: T4, Amine oxidase [flavin-containing] A (Homo sapiens, UniProt P21397); format: functional
T4 sequence (P21397 whole entry): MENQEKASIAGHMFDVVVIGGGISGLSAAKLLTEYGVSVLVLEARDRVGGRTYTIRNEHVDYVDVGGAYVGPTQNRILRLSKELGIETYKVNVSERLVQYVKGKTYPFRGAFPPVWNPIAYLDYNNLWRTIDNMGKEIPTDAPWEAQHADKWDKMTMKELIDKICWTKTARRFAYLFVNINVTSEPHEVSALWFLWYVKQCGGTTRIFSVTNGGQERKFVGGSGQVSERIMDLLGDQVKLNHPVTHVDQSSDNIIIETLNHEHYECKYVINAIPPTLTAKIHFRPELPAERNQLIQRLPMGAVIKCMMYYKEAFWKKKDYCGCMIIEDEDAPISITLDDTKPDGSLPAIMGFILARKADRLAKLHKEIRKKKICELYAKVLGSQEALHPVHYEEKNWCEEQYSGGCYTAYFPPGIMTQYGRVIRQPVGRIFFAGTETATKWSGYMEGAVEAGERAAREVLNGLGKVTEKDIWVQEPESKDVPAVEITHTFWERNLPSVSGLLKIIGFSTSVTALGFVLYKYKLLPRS

[7] = molecular target: cGMP-inhibited 3',5'-cyclic phosphodiesterase 3A (Homo sapiens, UniProt Q14432); format: functional
[8] = molecular target: 3',5'-cyclic-AMP phosphodiesterase 4A (Homo sapiens, UniProt P27815); format: functional
[9] = molecular target: T5, Prostaglandin G/H synthase 1 (Homo sapiens, UniProt P23219); format: functional
[10] = molecular target: T5, Prostaglandin G/H synthase 1; format: functional; remark: listed apart in the source
[11] = molecular target: Sodium-dependent noradrenaline transporter (Homo sapiens, UniProt P23975)
[12] = molecular target: Sodium-dependent serotonin transporter (Homo sapiens, UniProt P31645)
Thromboxane A2 receptor = molecular target: T6, Thromboxane A2 receptor (Homo sapiens, UniProt P21731); format: functional, cell-based
T6 sequence (P21731 whole entry): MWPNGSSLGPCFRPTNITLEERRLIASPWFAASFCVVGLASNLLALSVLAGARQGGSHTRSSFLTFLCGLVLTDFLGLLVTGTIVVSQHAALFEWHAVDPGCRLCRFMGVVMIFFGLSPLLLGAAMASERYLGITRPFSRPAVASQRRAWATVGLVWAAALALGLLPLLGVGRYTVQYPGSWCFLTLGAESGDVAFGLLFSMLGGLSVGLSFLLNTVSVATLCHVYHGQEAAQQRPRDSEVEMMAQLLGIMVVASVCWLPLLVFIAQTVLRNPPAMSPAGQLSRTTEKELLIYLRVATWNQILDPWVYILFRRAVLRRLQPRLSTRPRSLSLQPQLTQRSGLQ
Further: assay procedure not described here.

cGMP-inhibited 3',5'-cyclic phosphodiesterase 3A, sequence (Q14432 whole entry): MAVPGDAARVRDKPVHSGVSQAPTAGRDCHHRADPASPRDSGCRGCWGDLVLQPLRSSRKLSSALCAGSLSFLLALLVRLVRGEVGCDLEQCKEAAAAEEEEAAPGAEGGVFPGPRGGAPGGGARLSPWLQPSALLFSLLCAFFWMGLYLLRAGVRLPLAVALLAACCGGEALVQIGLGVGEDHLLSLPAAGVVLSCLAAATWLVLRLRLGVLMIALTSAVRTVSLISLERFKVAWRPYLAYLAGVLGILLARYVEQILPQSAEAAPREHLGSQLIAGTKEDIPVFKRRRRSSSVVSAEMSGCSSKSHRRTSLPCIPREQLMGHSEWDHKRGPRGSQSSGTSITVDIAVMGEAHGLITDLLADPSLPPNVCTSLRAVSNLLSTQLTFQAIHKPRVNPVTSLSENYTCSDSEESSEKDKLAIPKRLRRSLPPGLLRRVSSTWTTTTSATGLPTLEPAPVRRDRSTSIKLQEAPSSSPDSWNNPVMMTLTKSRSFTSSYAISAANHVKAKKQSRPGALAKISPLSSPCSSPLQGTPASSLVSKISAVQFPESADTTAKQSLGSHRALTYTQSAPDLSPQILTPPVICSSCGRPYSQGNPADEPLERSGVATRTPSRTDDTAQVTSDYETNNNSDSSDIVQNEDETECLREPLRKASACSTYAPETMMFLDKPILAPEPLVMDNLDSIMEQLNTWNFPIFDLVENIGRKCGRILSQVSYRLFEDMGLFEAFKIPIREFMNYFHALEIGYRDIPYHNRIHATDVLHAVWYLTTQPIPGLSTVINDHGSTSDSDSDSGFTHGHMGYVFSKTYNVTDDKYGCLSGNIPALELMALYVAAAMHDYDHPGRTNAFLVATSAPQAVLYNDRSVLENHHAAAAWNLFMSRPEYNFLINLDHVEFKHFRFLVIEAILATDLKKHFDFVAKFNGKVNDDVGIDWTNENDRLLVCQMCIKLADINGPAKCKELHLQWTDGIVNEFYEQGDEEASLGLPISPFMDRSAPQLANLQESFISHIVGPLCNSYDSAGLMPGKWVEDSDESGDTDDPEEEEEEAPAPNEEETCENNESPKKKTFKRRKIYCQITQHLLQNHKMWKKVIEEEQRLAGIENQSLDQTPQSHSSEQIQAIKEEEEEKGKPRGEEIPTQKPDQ
Vascular endothelial growth factor receptor 2, sequence (P35968 whole entry): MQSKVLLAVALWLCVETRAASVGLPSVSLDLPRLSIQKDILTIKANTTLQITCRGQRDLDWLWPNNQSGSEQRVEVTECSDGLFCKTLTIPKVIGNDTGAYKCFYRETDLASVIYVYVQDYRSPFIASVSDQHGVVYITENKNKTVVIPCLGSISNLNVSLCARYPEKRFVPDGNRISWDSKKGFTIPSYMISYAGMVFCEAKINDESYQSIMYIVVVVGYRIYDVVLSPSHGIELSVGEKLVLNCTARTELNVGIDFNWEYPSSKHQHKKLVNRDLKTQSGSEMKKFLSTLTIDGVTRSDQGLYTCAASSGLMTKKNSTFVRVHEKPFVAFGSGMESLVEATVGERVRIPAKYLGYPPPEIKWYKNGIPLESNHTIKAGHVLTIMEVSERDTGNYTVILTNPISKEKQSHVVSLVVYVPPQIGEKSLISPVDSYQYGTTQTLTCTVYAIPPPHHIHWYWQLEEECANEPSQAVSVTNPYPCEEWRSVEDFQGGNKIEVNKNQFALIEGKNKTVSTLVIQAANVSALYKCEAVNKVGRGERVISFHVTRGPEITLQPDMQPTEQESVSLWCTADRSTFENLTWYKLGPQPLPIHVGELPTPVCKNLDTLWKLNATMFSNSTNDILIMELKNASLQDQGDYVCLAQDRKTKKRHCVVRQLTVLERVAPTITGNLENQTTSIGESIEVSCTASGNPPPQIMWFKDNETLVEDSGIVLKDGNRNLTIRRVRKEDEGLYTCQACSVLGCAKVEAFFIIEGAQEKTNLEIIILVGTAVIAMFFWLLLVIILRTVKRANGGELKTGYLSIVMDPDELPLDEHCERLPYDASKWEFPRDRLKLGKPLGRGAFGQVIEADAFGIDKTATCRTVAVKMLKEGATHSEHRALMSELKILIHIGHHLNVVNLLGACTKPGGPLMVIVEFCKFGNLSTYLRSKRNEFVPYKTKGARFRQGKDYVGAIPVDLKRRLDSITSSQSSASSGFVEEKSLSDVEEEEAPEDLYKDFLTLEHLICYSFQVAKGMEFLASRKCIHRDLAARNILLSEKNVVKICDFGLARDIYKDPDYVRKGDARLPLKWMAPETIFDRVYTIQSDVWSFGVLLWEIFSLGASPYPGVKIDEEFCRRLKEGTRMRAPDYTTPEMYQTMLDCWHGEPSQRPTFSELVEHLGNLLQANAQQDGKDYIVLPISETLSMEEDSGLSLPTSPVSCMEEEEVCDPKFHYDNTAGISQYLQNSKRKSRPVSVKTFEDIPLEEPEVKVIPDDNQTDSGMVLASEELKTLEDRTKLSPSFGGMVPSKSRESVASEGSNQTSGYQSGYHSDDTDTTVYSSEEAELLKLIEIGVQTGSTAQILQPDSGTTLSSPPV
Acetylcholinesterase, sequence (P22303 whole entry): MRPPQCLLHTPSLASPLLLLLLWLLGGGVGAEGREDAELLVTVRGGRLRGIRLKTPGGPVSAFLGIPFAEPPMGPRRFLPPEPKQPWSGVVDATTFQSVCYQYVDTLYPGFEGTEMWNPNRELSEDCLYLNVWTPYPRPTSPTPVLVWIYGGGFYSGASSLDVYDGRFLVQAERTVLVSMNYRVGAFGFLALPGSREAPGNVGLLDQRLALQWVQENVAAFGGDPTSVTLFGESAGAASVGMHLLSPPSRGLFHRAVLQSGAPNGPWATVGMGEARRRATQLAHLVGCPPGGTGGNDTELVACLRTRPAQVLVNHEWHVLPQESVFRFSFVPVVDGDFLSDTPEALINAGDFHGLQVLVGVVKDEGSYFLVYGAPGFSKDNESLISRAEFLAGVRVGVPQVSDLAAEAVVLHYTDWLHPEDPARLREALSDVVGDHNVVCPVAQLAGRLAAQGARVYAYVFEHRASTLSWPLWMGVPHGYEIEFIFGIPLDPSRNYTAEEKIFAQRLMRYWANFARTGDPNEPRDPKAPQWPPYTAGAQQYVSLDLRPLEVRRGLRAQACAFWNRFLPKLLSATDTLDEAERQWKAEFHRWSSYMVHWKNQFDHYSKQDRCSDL
Voltage-gated inwardly rectifying potassium channel KCNH2, sequence (Q12809 whole entry): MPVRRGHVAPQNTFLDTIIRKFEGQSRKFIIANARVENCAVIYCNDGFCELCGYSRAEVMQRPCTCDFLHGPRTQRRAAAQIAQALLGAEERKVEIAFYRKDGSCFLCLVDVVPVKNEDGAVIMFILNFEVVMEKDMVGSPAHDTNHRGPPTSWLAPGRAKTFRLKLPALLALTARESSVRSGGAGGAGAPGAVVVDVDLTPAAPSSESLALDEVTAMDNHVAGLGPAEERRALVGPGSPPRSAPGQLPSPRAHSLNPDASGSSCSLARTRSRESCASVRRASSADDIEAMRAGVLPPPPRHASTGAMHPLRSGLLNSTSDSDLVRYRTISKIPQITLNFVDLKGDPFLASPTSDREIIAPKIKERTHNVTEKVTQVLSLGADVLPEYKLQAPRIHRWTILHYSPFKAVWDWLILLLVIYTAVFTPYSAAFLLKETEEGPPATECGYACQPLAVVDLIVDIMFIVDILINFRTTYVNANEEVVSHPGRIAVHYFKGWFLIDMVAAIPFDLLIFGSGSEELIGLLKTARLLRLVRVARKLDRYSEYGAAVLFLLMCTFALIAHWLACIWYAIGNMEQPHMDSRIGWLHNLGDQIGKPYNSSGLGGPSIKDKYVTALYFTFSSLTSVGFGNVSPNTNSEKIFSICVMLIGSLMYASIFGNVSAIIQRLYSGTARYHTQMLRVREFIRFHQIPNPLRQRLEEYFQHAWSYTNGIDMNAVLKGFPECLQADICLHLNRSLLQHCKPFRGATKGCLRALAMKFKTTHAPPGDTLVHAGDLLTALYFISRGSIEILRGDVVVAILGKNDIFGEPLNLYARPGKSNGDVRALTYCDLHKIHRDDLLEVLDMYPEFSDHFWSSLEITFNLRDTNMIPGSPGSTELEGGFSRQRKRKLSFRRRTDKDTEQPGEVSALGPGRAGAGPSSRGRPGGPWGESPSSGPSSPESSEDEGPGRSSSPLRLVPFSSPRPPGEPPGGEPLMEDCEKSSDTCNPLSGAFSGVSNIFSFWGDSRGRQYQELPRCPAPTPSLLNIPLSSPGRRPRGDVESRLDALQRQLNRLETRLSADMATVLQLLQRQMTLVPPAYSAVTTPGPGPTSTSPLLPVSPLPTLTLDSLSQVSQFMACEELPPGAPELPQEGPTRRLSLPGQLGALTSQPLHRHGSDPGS
T5 sequence (P23219 whole entry): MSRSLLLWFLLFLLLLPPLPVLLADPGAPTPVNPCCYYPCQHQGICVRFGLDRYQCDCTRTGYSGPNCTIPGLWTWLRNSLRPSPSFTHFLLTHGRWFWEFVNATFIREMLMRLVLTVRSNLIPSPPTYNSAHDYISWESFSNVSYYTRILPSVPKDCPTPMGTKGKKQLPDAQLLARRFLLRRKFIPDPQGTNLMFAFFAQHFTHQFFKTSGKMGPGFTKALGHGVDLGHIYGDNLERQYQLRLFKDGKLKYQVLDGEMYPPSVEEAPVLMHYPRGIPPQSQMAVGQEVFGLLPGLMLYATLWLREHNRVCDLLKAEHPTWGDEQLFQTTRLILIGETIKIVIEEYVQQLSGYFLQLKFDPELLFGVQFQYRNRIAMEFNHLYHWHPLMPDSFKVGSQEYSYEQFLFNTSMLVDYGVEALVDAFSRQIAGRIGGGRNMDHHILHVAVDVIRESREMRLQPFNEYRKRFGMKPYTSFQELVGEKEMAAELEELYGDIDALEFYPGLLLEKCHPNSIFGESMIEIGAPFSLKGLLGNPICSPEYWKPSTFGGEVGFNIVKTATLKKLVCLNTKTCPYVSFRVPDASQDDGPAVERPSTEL

Structure (SMILES)	AC50 (Acetylcholinesterase)	AC50 [1]	AC50 [2]	AC50 (D(3) dopamine receptor)	AC50 (Prothrombin)	AC50 [3]	AC50 [4]	AC50 [5]	AC50 [6]	AC50 [7]	AC50 [8]	AC50 [9]	AC50 [10]	AC50 [11]	AC50 [12]	AC50 (Thromboxane A2 receptor)
Cc1c(C(C)C)c(=O)n(-c2ccccc2)n1C [PROPYPHENAZONE]	> 30 µM	> 30 µM	> 30 µM	> 30 µM	> 30 µM	> 30 µM	> 30 µM	> 30 µM	> 30 µM	> 30 µM	> 30 µM	> 30 µM	> 30 µM	> 30 µM	> 30 µM	> 30 µM
[H]/N=C(/N)NS(=O)(=O)c1ccc(N)cc1 [SULFAGUANIDINE]	> 30 µM	> 30 µM	> 30 µM	> 30 µM	> 30 µM	> 30 µM	> 30 µM	> 30 µM	> 30 µM	> 30 µM	> 30 µM	> 30 µM	> 30 µM	> 30 µM	> 30 µM	> 30 µM
Cc1cccc(C)c1NC(=O)CN(CC(=O)O)CC(=O)O [LIDOFENIN]	> 30 µM	> 30 µM	> 30 µM	> 30 µM	> 30 µM	> 30 µM	> 30 µM	> 30 µM	> 30 µM	> 30 µM	> 30 µM	> 30 µM	> 30 µM	> 30 µM	> 30 µM	> 30 µM
CN1CCCC(CC2c3ccccc3Sc3ccccc32)C1 (stereo unspecified) [METHIXENE]	> 30 µM	4.82 µM	0.0054 µM	0.742 µM	> 30 µM	1.9 µM	3.1 µM	> 30 µM	> 30 µM	> 30 µM	> 30 µM	> 30 µM	> 30 µM	3.29 µM	18.2 µM	25 µM
CC(C)(Oc1ccc(C(=O)c2ccc(Cl)cc2)cc1)C(=O)O [FENOFIBRIC ACID]	> 30 µM	> 30 µM	> 30 µM	> 30 µM	> 30 µM	> 30 µM	> 30 µM	> 30 µM	> 30 µM	> 30 µM	> 3 µM	> 30 µM	> 30 µM	> 30 µM	> 30 µM	> 30 µM
CN1C(C(=O)Nc2ccccn2)=C(OC(=O)/C=C/c2ccccc2)c2ccccc2S1(=O)=O [PIROXICAM CINNAMATE]	> 30 µM	> 30 µM	> 30 µM	> 30 µM	> 30 µM	13.4 µM	> 30 µM	> 30 µM	> 10 µM	> 30 µM	> 30 µM	16.3 µM	> 30 µM	> 30 µM	> 30 µM	> 30 µM
Nc1ccc(C(=O)NCC(=O)O)cc1 [AMINOHIPPURIC ACID]	> 30 µM	> 30 µM	> 30 µM	> 30 µM	> 30 µM	> 30 µM	> 30 µM	> 30 µM	> 30 µM	> 30 µM	> 30 µM	> 30 µM	> 30 µM	> 30 µM	> 30 µM	> 30 µM
O=c1[nH]c(=O)n([C@H]2C[C@H](O)[C@@H](CO)O2)cc1/C=C/Br [BRIVUDINE]	> 30 µM	> 30 µM	> 30 µM	> 30 µM	> 30 µM	> 30 µM	> 30 µM	> 30 µM	> 30 µM	> 30 µM	> 30 µM	> 30 µM	> 30 µM	> 30 µM	> 30 µM	> 30 µM
CCCCC(=O)O[C@H]1CC[C@H]2[C@@H]3CCc4cc(O)ccc4[C@H]3CC[C@]12C [ESTRADIOL VALERATE]	> 30 µM	> 30 µM	> 30 µM	> 30 µM	> 30 µM	> 30 µM	> 30 µM	> 30 µM	> 30 µM	23.9 µM	> 10 µM	7.05 µM	> 30 µM	> 30 µM	> 30 µM	> 30 µM
NC(=O)N/N=C/c1ccc([N+](=O)[O-])o1 [NITROFURAZONE]	> 30 µM	> 30 µM	> 30 µM	> 30 µM	> 30 µM	> 30 µM	> 30 µM	> 30 µM	> 30 µM	29.8 µM	> 30 µM	> 30 µM	> 30 µM	> 30 µM	> 30 µM	> 30 µM
Cc1ccc2c([nH]c(=O)c3c(=O)cc(C(=O)OCCC(C)C)oc32)c1C	6.76 µM	> 30 µM	11.8 µM	> 30 µM	> 30 µM	> 30 µM	23 µM	> 30 µM	> 30 µM	> 30 µM	> 30 µM	> 30 µM	21.3 µM	> 30 µM	> 30 µM	> 30 µM
